In patent publication US11214803B2, “Modulators of YAP1 expression” (Ionis Pharmaceuticals, Inc., priority 2019, dated 2022):
Strand notation (5' to 3'): a small letter for the sugar, then the base; units joined by * are phosphorothioate-linked, units joined directly phosphodiester-linked; [ ] holds rarer units or linkages, { } end groups; capitals alone tell only the bases. k = constrained ethyl (cEt); [5mC] = 5-methylcytosine; d = 2'-deoxy (DNA)

Each substance was assayed on Yap1 mRNA (assay: Antisense inhibition of human Yap1 in A-431 cells by cEt gapmers, single dose (Example 4, RTS4814)). Details: Table 14; A-431 cells, 5,000 cells per well, free uptake, 2,000 nM, approximately 48 hours; RTS4814; normalized to RIBOGREEN; Yap1 mRNA relative to untreated control; * = targets amplicon region of primer probe set.
Type: cell-based
Method: Modified oligonucleotides were designed to target a Yap1 nucleic acid and were tested for their effect on Yap1 mRNA level in vitro. The modified oligonucleotides were tested in a series of experiments that had similar culture conditions. Cultured A-431 cells at a density of 5,000 cells per well were treated using free uptake with 2,000 nM of modified oligonucleotide. After a treatment period of approximately 48 hours, RNA was isolated from the cells and Yap1 mRNA levels were measured by quantitative real-time RTPCR. Human primer probe set RTS4814 was used to measure mRNA levels. Yap1 mRNA levels were normalized to total RNA content, as measured by RIBOGREEN®. Results are presented in the tables below as percent control of the amount of Yap1 mRNA relative to untreated control cells (% UTC). The modified oligonucleotides with percent control values marked with an asterisk (*) target the amplicon region of the primer probe set. Additional assays may be used to measure the potency and efficacy of the modified oligonucleotides targeting the amplicon region.
The newly designed modified oligonucleotides in the Tables below were designed as 3-10-3 cEt gapmers. The gapmers are 16 nucleosides in length, wherein the central gap segment comprises of ten 2′-deoxynucleosides and is flanked by wing segments on the 5′ direction and the 3′ direction comprising three nucleosides each. Each nucleoside in the 5′ wing segment and each nucleoside in the 3′ wing segment has a cEt sugar modification. The internucleoside linkages throughout each gapmer are phosphorothioate (P═S) linkages. All cytosine residues throughout each gapmer are 5-methylcytosines.
“Start site” indicates the 5′-most nucleoside to which the gapmer is targeted in the human gene sequence. “Stop site” indicates the 3′-most nucleoside to which the gapmer is targeted human gene sequence. […] Activity of the modified oligonucleotide may be defined in a different experiment.

In the case of “1074432 (antisense kG*kT*kT*dA*dA*dA*dA*dT*dG*dA*dT*dT*dG*kG*kT*kG) [Compound 1074432]”, the “YAP1 (% UTC)” value is reported as 3* % UTC.

Point of comparison: “1076384 (kT*kA*kT*dA*dA*dG*dG*dG*dA*d[5mC]*dT*dT*dG*k[5mC]*kT*kG; antisense) [Compound 1076384]”, “YAP1 (% UTC)” value 25 % UTC. Against it:
- 1075584 (kA*kA*kT*dA*dA*dT*dT*dG*dA*d[5mC]*d[5mC]*dT*dA*kG*k[5mC]*kA; antisense) [Compound 1075584] — higher, 57 % UTC
- 1074848 (kG*kT*kT*dA*dT*dG*dA*dT*dA*dG*dG*d[5mC]*dA*k[5mC]*kA*k[5mC]; antisense) [Compound 1074848] — lower, 11 % UTC

Same assay, conditions: Table 15; A-431 cells, 5,000 cells per well, free uptake, 2,000 nM, approximately 48 hours; RTS4814; normalized to RIBOGREEN; Yap1 mRNA relative to untreated control; * = targets amplicon region of primer probe set

Point of comparison: “1074273 (antisense k[5mC]*kT*kT*dA*dT*dG*dG*dT*dT*dT*dA*dT*dA*kT*kA*kG) [Compound 1074273]”, “YAP1 (% UTC)” value 34 % UTC. Against it:
- 1076513 (antisense k[5mC]*kA*kT*dT*dA*dA*d[5mC]*dA*d[5mC]*dT*d[5mC]*d[5mC]*dT*k[5mC]*kA*kG) [Compound 1076513] — higher, 36 % UTC
- 1075585 (kA*kA*kA*dT*dA*dA*dT*dT*dG*dA*d[5mC]*d[5mC]*dT*kA*kG*k[5mC]; antisense) [Compound 1075585] — higher, 52 % UTC
- 1076417 (k[5mC]*kT*kT*dT*dA*d[5mC]*dA*d[5mC]*d[5mC]*dG*dA*dA*dA*kT*kG*kA; antisense) [Compound 1076417] — higher, 42 % UTC
- 1074177 (antisense k[5mC]*k[5mC]*kT*d[5mC]*d[5mC]*d[5mC]*d[5mC]*d[5mC]*dG*dA*d[5mC]*dG*d[5mC]*kG*k[5mC]*kA) [Compound 1074177] — higher, 69 % UTC
- 1076033 (k[5mC]*kA*kT*dT*dA*dG*dT*dA*dG*dG*dT*dA*dT*kT*kT*k[5mC]; antisense) [Compound 1076033] — lower, 8 % UTC
- 1075137 (antisense kG*kA*kT*dT*dA*dA*dA*dT*dA*d[5mC]*dT*dG*dA*k[5mC]*k[5mC]*kA) [Compound 1075137] — lower, 3 % UTC
- 1074721 (antisense kG*kG*kA*dA*dG*dA*dT*d[5mC]*dT*d[5mC]*d[5mC]*dA*dT*kA*kT*kT) [Compound 1074721] — higher, 43 % UTC
- 1076257 (k[5mC]*kT*kA*dA*dG*dA*dA*dA*d[5mC]*dT*d[5mC]*dA*dT*kA*kG*kT; antisense) [Compound 1076257] — higher, 54 % UTC

Same assay, conditions: Table 16; A-431 cells, 5,000 cells per well, free uptake, 2,000 nM, approximately 48 hours; RTS4814; normalized to RIBOGREEN; Yap1 mRNA relative to untreated control cells

Point of comparison: “1075426 (antisense kG*kT*kA*dT*dT*dA*dT*dT*dA*dA*dT*d[5mC]*d[5mC]*kT*kG*kT) [Compound 1075426]”, “YAP1 (% UTC)” value 49 % UTC. Against it:
- 1075234 (antisense kG*kT*kA*dA*dA*dT*dA*d[5mC]*dT*d[5mC]*dT*dA*dG*kT*kT*k[5mC]) [Compound 1075234] — lower, 22 % UTC
- 1075650 (kA*kT*kA*dT*dT*dA*d[5mC]*dA*dA*dT*d[5mC]*d[5mC]*d[5mC]*kA*kG*k[5mC]; antisense) [Compound 1075650] — lower, 48 % UTC
- 1075042 (antisense kT*kT*kA*dA*dA*dA*dG*dG*dT*dT*dT*dG*dG*k[5mC]*kA*k[5mC]) [Compound 1075042] — lower, 17 % UTC

Same assay, conditions: Table 17; A-431 cells, 5,000 cells per well, free uptake, 2,000 nM, approximately 48 hours; RTS4814; normalized to RIBOGREEN; Yap1 mRNA relative to untreated control cells

Point of comparison: “1076323 (k[5mC]*kA*kA*dT*dT*dT*dA*d[5mC]*dA*dA*dG*dT*dG*kA*kG*k[5mC]; antisense) [Compound 1076323]”, “YAP1 (% UTC)” value 5 % UTC. Against it:
- 1075779 (kG*kT*kA*dT*dT*dA*d[5mC]*dA*dA*dA*d[5mC]*dT*dG*kA*kT*kT; antisense) [Compound 1075779] — higher, 28 % UTC
- 1075107 (antisense kT*kA*kA*dA*dA*dA*d[5mC]*dA*dT*dT*dG*dT*dG*kG*k[5mC]*k[5mC]) [Compound 1075107] — higher, 114 % UTC
- 1074979 (antisense kA*kT*kT*dG*d[5mC]*d[5mC]*dA*dG*dT*dT*d[5mC]*dT*dT*kG*kT*kT) [Compound 1074979] — higher, 32 % UTC
- 1074627 (antisense k[5mC]*k[5mC]*kT*dG*dT*dT*dA*dT*dG*dA*dA*d[5mC]*d[5mC]*k[5mC]*kT*kT) [Compound 1074627] — lower, 3 % UTC
- 1075843 (k[5mC]*kA*kT*dG*dA*dA*dA*dT*dG*dA*dT*dG*dG*kA*kA*k[5mC]; antisense) [Compound 1075843] — higher, 47 % UTC
- 1075011 (antisense kG*k[5mC]*kA*d[5mC]*dA*dA*dT*dA*dA*dT*d[5mC]*dG*dA*kA*k[5mC]*kA) [Compound 1075011] — higher, 44 % UTC
- 1074211 (antisense k[5mC]*kT*kT*d[5mC]*d[5mC]*dG*dG*dA*dG*d[5mC]*d[5mC]*dT*d[5mC]*kA*kT*kG) [Compound 1074211] — higher, 67 % UTC
- 1074947 (antisense kT*k[5mC]*k[5mC]*dA*dA*dA*dA*d[5mC]*d[5mC]*d[5mC]*dT*dT*dT*kG*kG*kT) [Compound 1074947] — higher, 99 % UTC

Same assay, conditions: Yap1 mRNA remaining as percent of untreated control; 3-10-3 cEt gapmers; A-431 cells; Table 36

Point of comparison: “1076086 (kA*kA*k[5mC]*dT*dA*dA*dT*dA*dG*dG*d[5mC]*d[5mC]*dA*kT*k[5mC]*kT; antisense) [compound 1076086]”, “YAP1 (% UTC)” value 31 % UTC. Against it:
- 1075062 (antisense k[5mC]*kT*kT*dT*dA*dA*d[5mC]*d[5mC]*dT*dT*dA*dT*dA*k[5mC]*kT*kT) [compound 1075062] — higher, 58 % UTC
- 1076438 (kT*kA*kG*dG*dA*dA*dG*dA*dA*dT*dA*dG*d[5mC]*kA*kT*k[5mC]; antisense) [compound 1076438] — lower, 13 % UTC
- 1074774 (k[5mC]*kA*kA*dG*dA*dA*dT*dA*d[5mC]*d[5mC]*d[5mC]*dA*dG*kT*kT*kA; antisense) [compound 1074774] — lower, 16 % UTC
- 1075254 (kT*k[5mC]*k[5mC]*d[5mC]*dA*dA*dA*dA*dG*dT*d[5mC]*dA*dT*k[5mC]*kG*k[5mC]; antisense) [compound 1075254] — lower, 28 % UTC
- 1076566 (kA*kA*kT*dT*dA*d[5mC]*dA*dG*dT*dG*dT*d[5mC]*dT*k[5mC]*kA*k[5mC]; antisense) [compound 1076566] — higher, 63 % UTC
- 1074806 (kT*kT*kG*dT*dA*dG*d[5mC]*dA*dA*dA*dG*dT*d[5mC]*kA*k[5mC]*kT; antisense) [compound 1074806] — lower, 8 % UTC
- 1076214 (kA*kT*k[5mC]*d[5mC]*dT*dA*dT*dA*d[5mC]*dA*dT*dT*dA*kA*kG*kA; antisense) [compound 1076214] — higher, 67 % UTC

Same assay, conditions: Yap1 mRNA remaining as percent of untreated control; 3-10-3 cEt gapmers; A-431 cells; Table 37

Point of comparison: “1075511 (k[5mC]*kA*kA*dT*dA*dT*dT*dA*dT*d[5mC]*dT*dG*dA*kG*k[5mC]*kT; antisense) [compound 1075511]”, “YAP1 (% UTC)” value 106 % UTC. Against it:
- 1075127 (kG*k[5mC]*kT*dA*dA*dA*dT*dT*dA*dT*dG*d[5mC]*dT*kA*kT*kT; antisense) [compound 1075127] — lower, 79 % UTC
- 1074743 (kG*kA*kA*dA*dG*dG*dA*d[5mC]*dT*d[5mC]*dT*dT*dA*kG*kG*kT; antisense) [compound 1074743] — lower, 16 % UTC
- 1076087 (k[5mC]*kA*kA*dA*d[5mC]*dT*dA*dA*dT*dA*dG*dG*d[5mC]*k[5mC]*kA*kT; antisense) [compound 1076087] — lower, 10 % UTC
- 1074135 (k[5mC]*k[5mC]*kG*d[5mC]*dG*dG*d[5mC]*d[5mC]*d[5mC]*d[5mC]*dG*d[5mC]*dA*kT*k[5mC]*k[5mC]; antisense) [compound 1074135] — lower, 91 % UTC
- 1075735 (kG*kA*kA*dT*d[5mC]*dG*dA*dT*dG*dT*dG*dT*dT*kG*k[5mC]*kG; antisense) [compound 1075735] — lower, 17 % UTC
- 1075831 (kT*kA*kT*dT*dA*dG*d[5mC]*d[5mC]*dT*dT*d[5mC]*dT*dA*kA*k[5mC]*k[5mC]; antisense) [compound 1075831] — lower, 59 % UTC
- 1076503 (kA*kA*kT*dT*dA*d[5mC]*d[5mC]*d[5mC]*d[5mC]*dT*dG*dT*dG*kA*kG*kG; antisense) [compound 1076503] — lower, 77 % UTC
- 1075287 (antisense kT*kA*kT*dT*dA*d[5mC]*dG*dG*dA*d[5mC]*dA*dG*dA*kA*kG*kT) [compound 1075287] — lower, 58 % UTC
- 1076407 (antisense kG*kT*kA*dT*dT*dA*dT*dT*dT*dA*dA*dG*dA*k[5mC]*k[5mC]*kT) [compound 1076407] — lower, 22 % UTC
- 1074295 (antisense kT*kG*kG*dT*dT*dG*dG*dA*dG*dT*dT*dG*d[5mC]*kT*kG*k[5mC]) [compound 1074295] — lower, 15 % UTC
